Results reported in PMC9770967, “Native holdup (nHU) to measure binding affinities from cell extracts” (Science Advances, 2022).
Blank lines part the entries; values can stand above or below the compound they belong to. *1 amine or outer side, *2 acyl side, *3 side chain or, on linkers, in order; H or OH if unused. Where a SMILES comes first, the peptide text is derived from it. The star is where a group is joined. X1 = O=C(CCCC[C@@H]1SC[C@@H]2NC(=O)N[C@@H]21)NCCCOCCOCCOCCCN*; Suc = O=C(CCC(=O)[*:2])[*:1]

Legend:
SNX27_PDZ [1] = assay: nHU-MS, SNX27_PDZ bait, total Jurkat extracts, series 2 (Exploris MS); format: binding, human
Description: (§1) To further establish the repeatability and robustness of the nHU-MS assay, we repeated the experiments using a different mass spectrometer and six different PDZ domain baits taken from SCRIB (PDZ_1 and PDZ_2), discs large MAGUK scaffold protein 1 (DLG1, PDZ_1, and PDZ_2), Tax1 binding protein 3 (TAX1BP3), and SNX27 (fig. S3B and table S1). […] Of the studied baits, the PDZ domain of SNX27 turned out to be the most promiscuous with 103 statistically significant interaction partners (while 180 SNX27 binding partners were identified in total on the basis of the three independent nHU-MS experiments).
(§2) For saturating streptavidin resin with biotinylated peptides or biotin, 50 μl of streptavidin resin was mixed with biotin or peptide at 40 to 60 μM concentration in 6 to 6.5 resin volume for 60 min. To saturate streptavidin resin with biotinylated proteins, 50 μl of streptavidin resin (Streptavidin Sepharose High Performance, Cytiva) was mixed with biotinylated MBP or MBP-PDZ at 40 to 50 μM concentration in 20× resin volume for 60 min. After saturation, resins were washed a single time [10 resin volume, holdup buffer: 50 mM tris (pH 7.5), 300 mM NaCl, and 1 mM TCEP, 0.22-μm filtered] and were depleted with biotin (10 resin volume, 10 min, holdup buffer supplemented with 100 μM biotin). Last, resins were washed two times (10 resin volume, holdup buffer).
(§3) For single-point nHU experiments carried out at ~10 μM bait concentration, 50 μl of saturated streptavidin resin was mixed with 200 μl of cell lysate (2 mg/ml). Titration experiments were carried out by mixing control and bait-saturated resin and keeping the total resin volume constant; e.g., ~5 μM bait concentration can be achieved by mixing 25 μl of bait-saturated streptavidin resin with 25 μl of control resin and 200 μl of cell lysate (2 mg/ml). Control and bait-saturated resins were prepared in larger amounts, and a serial dilution was prepared with these presaturated resins to achieve different resin ratios.
(§4) Unless specified elswhere, the nHU mixture was incubated at 4°C for 2 hours. After the incubation ended, the resin was separated from the supernatant by a brief centrifugation (15 s, 2000 g). Then, half of the supernatant was removed by pipetting without any delay to avoid any resin contamination; e.g., 100 μl of supernatant is collected if 200 μl of cell lysate was used as analyte. Alternatively, the supernatant can be centrifuged an additional time to clarify it further, removing any possible resin contamination. In principle, the separation of the supernatant should be as fast as possible since any delay can perturb the equilibrium. […] Alternatively, the resin can be separated from the supernatant using filter plates (e.g., various products of Millipore, Burlington, MA) or spin columns (e.g., Pierce spin cups—cellulose acetate filter from Thermo Fisher Scientific, Waltham, MA) to achieve faster separation.
(§5) The nHU samples were precipitated with trichloroacetic acid (TCA) 20% overnight at 4°C and centrifuged at 14,000 rpm for 10 min at 4°C. The protein pellets were washed twice with 1 ml of cold acetone and air-dried. The protein extracts were solubilized in 8 M urea, reduced with 5 mM TCEP for 30 min, and alkylated with 10 mM iodoacetamide for 30 min in the dark. Double digestion was performed at 37°C with 500 ng of endoproteinase Lys-C (Wako, Richmond, USA) for 4 hours, followed by fourfold dilution and an overnight digestion with 500 ng of trypsin (Promega, Charbonnieres les Bains, France). Peptide mixtures were then desalted on a C18 spin-column and dried on a speed vacuum.
(§6) Samples were analyzed using an Ultimate 3000 nano-RSLC coupled in line via a nano-electrospray ionization source, with an LTQ-Orbitrap ELITE mass spectrometer (Thermo Fisher Scientific, San Jose, CA) or with the Orbitrap Exploris 480 mass spectrometer (Thermo Fisher Scientific, Bremen, Germany) equipped with a high field asymmetric ion mobility spectrometry (FAIMS) module. […]

TX1BP3_PDZ = assay: nHU-MS, TX1BP3_PDZ (TAX1BP3) bait, total Jurkat extracts (Exploris MS); format: binding, human
Description: as §1, §2, §3, §4, §5, §6

SCRIB_PDZ_1 = assay: nHU-MS, SCRIB_PDZ_1 bait, total Jurkat extracts (Exploris MS); format: binding, human
Description: as §1, §2, §3, §4, §5, §6

DLG1_PDZ_1 = assay: nHU-MS, DLG1_PDZ_1 bait, total Jurkat extracts (Exploris MS); format: binding, human
Description: as §1, §2, §3, §4, §5, §6

DLG1_PDZ_2 = assay: nHU-MS, DLG1_PDZ_2 bait, total Jurkat extracts (Exploris MS); format: binding, human; conditions: Jurkat extract
Description: as §1, §2, §3, §4, §5, §6

SCRIB_PDZ_2 = assay: nHU-MS, SCRIB_PDZ_2 bait, total Jurkat extracts (Exploris MS); format: binding, human; conditions: nHU-MS
Description: as §1, §2, §3, §4, §5, §6

SNX27_PDZ [2] = assay: nHU-MS, SNX27_PDZ bait, total SH-SY5Y extracts; format: binding, human
Description: The empty His6-AviTag-MBP-TEV vector was used to produce biotinylated MBP for control experiments. Proteins were coexpressed with BirA biotin ligase (PET21a-BirA, Addgene, no. 20857) in Escherichia coli BL21(DE3) cells. At isopropyl-β-D-thiogalactopyranoside (IPTG) induction (1 mM IPTG at 18°C overnight), 50 μM biotin was added to the media. Harvested cells were lysed in a buffer containing 50 mM tris (pH 7.5), 150 to 300 mM NaCl, 50 μM biotin, 2 mM β-mercaptoethanol, cOmplete EDTA-free protease inhibitor cocktail (Roche, Basel, Switzerland), 1% Triton X-100, and trace amount of deoxyribonuclease, ribonuclease, and lysozyme. Lysates were frozen at −20°C before further purification steps. Lysates were sonicated and centrifuged for clarification. Expressed proteins were captured on in-house prepacked Ni-IDA (Protino Ni-IDA Resin, Macherey-Nagel, Duren, Germany) columns and were washed with at least 10 column volumes of cold wash buffer [50 mM tris (pH 7.5), 150 mM NaCl, and 2 mM β-mercaptoethanol] before elution with 250 mM imidazole. The Ni elution was collected directly on a preequilibrated amylose column (amylose high flow resin, New England Biolabs, Ipswich, MA). Amylose column was washed with 5 column volumes of cold wash buffer before fractionated elution in a buffer containing 25 mM Hepes (pH 7.5), 150 mM NaCl, 1 mM TCEP, 10% glycerol, 5 mM maltose, and cOmplete EDTA-free protease inhibitor cocktail. The concentration of proteins was determined by their ultraviolet absorption at 280 nm before aliquots were snap-frozen in liquid nitrogen and stored at −80°C.
as §2, §3
as §4, with “separation. […]” for “separation.”

SCRIB PDZ3 = conditions: fragmentomic, isolated PDZ domain; cited from earlier work
Description: Supplement sciadv.ade3828_table_s1.zip/sciadv.ade3828_table_s1.xlsx, sheet "nHU-WB_SP"

SCRIB PDZ1 = conditions: fragmentomic, isolated PDZ domain; cited from earlier work
Description: Supplement sciadv.ade3828_table_s1.zip/sciadv.ade3828_table_s1.xlsx, sheet "nHU-WB_SP" | column: Domain-motif fragmentomic affinities (ProfAff)

[3] = target: isolated PDZ domain of SNX27; conditions: 10-mer PBM peptide vs isolated PDZ domain, holdup; cited from earlier work

- pKapp (nHU-MS) (SNX27_PDZ [1]; SNX27_PDZ&Jurkat (Exploris)): 4.78
- pKapp (nHU-MS) (TX1BP3_PDZ; TX1BP3_PDZ&Jurkat (Exploris)): 4.78
- pKapp (nHU-MS) (SCRIB_PDZ_1; SCRIB_PDZ_1&Jurkat (Exploris)): 4.749
Compound: WDR48

- pKd (SNX27_PDZ [1]; apparent, Jurkat, series 2, not filtered for significance, n = 3): 4.566
- pKd (DLG1_PDZ_1; DLG1_PDZ_1 bait, total Jurkat extract, not filtered for significance (pKdsign N/D)): 4.3897
Compound: PPIAL4H: Peptidyl-prolyl cis-trans isomerase A-like 4H
- BI (SNX27_PDZ [1]; Jurkat, series 2, n = 3): 0.2686
- Difference log2 (SNX27_PDZ [1]; Jurkat, series 2, n = 3): -0.4513
- Ratio SNX27/MBP (SNX27_PDZ [1]; Jurkat, series 2, n = 3): 0.7314
- BI (TX1BP3_PDZ; nHU-MS, TX1BP3_PDZ bait vs MBP, total Jurkat extract): -0.05277
- Difference log2 (TX1BP3_PDZ; nHU-MS, TX1BP3_PDZ vs MBP, total Jurkat extract): 0.07419
- Ratio TX1BP3/MBP (TX1BP3_PDZ; nHU-MS, TX1BP3_PDZ, total Jurkat extract): 1.053
- Ratio DLG1_1/MBP (DLG1_PDZ_1; DLG1_PDZ_1, total Jurkat extract): 0.8033
- BI (DLG1_PDZ_1; DLG1_PDZ_1 bait vs MBP, total Jurkat extract): 0.1967
- Difference log2 (DLG1_PDZ_1; DLG1_PDZ_1 vs MBP, total Jurkat extract): -0.3159
- Difference log2 (DLG1_PDZ_2; DLG1_PDZ_2 bait vs MBP): 0.01399
- Ratio DLG1_2/MBP (DLG1_PDZ_2; DLG1_PDZ_2 bait vs MBP): 1.01
- BI (DLG1_PDZ_2; DLG1_PDZ_2 bait): -0.009745
- Ratio SCRIB_1/MBP (SCRIB_PDZ_1; nHU-MS, SCRIB_PDZ_1, total Jurkat extract): 1.007
- BI (SCRIB_PDZ_1; nHU-MS, SCRIB_PDZ_1 bait vs MBP, total Jurkat extract): -0.006606
- Difference log2 (SCRIB_PDZ_1; nHU-MS, SCRIB_PDZ_1 vs MBP, total Jurkat extract): 0.009499
- Ratio SCRIB_2/MBP (SCRIB_PDZ_2; SCRIB_PDZ_2, total Jurkat extract): 1.14
- BI (SCRIB_PDZ_2; SCRIB_PDZ_2 bait vs MBP, total Jurkat extract): -0.1396
- Difference log2 (SCRIB_PDZ_2; SCRIB_PDZ_2 vs MBP, total Jurkat extract): 0.1885

- pKapp_HU_not_filtered (SNX27_PDZ [2]; apparent, Eq. 2, not filtered for significance): 4.711
- pKapp_significant_binders_HU (SNX27_PDZ [2]; apparent, Eq. 2, significant binders (1 σ, P < 0.05)): 4.711
Compound: KARS1: Lysine--tRNA ligase
- BI_HU (SNX27_PDZ [2]; n = 6): 0.3389

Compound: CC[C@H](C)[C@H](NC(=O)[C@H](CCC(N)=O)NC(=O)[C@H](CO)NC(=O)[C@@H](NC(=O)[C@H](CCC(N)=O)NC(=O)[C@@H](NC(=O)[C@H](CC(N)=O)NC(=O)[C@H](CCCNC(=N)N)NC(=O)[C@@H]1CCCN1C(=O)[C@H](CC(=O)O)NC(=O)CCC(=O)NCCCOCCOCCOCCCNC(=O)CCCC[C@@H]1SC[C@@H]2NC(=O)N[C@@H]21)[C@@H](C)O)[C@@H](C)O)C(=O)O [ABRAXAS2] ({X1-Suc}-DPRNTQTSQI-OH; C-terminus assumed)
- pKd_PDZ3 (SCRIB PDZ3): 4.01
- pKd_PDZ1 (SCRIB PDZ1): 4.02
- pKd (fragmentomic affinity) [3]: 4.04
